Results: patent publication US8729051B2, “Tri- and tetra-oligo-saccharides suitable as agglutination agents for enteric pathogens” (Nutrition Sciences N.V./S.A., priority 2006, dated 2014)

Assays:
E. coli K88 cells = assay: Pathogen agglutination, microscopic analysis; type: cell-based; conditions: 0.025%, pH 7.0, 10 minutes; versus xylose, penta- and deca-xylo-oligo-saccharides
Experimental: Tri and/or tetra-manno-oligo-saccharides were incubated in liquid at a dose of 0.025% at pH 7.0 with E. coli K88 and Lactobacillus amylovorus cells for 10 minutes. After 10 minutes, agglutination was visualised by means of microscopic analysis.

[1] = Chicken performance (weight, feed conversion); type: in vivo, chickens; conditions: feed with 3 ppm flavomycin or 0.025% oligo-saccharides
Excerpt: 3×40 one day old chickens were provided with following feeds: control feed, control feed supplemented with 3 ppm flavomycin and control feed supplemented with 0.025% tri- and/or tetra-manno-oligo-saccharides. The control feed was a mash feed, composed of raw materials suitable for animal nutrition. Water and feed were supplied ad libitum. The chickens were contaminated at day 2 with caecum contents of 3 week old chickens (most critical period for gastrointestinal problems). At regular time intervals, chickens were dissected and the enteric pathogen contents in the small intestine were determined by plate counting on MacConkey agar.
The same experimental conditions were applied as described in experiment 1. In this example, daily growth and feed conversion were monitored after 13 days.

In the case of `OC1OC[C@@H](O[C@@H]2OC[C@@H](O[C@@H]3OC[C@@H](O)[C@H](O)[C@H]3O)[C@H](O)[C@H]2O)[C@H](O)[C@H]1O` (some centres unmarked) [tri-xylo-oligo-saccharides], the “agglutination, comparison of degree of polymerisation of xylo-oligo-saccharides” value (E. coli K88 cells) is reported as “best agglutination”.
With flavomycin the Feed conversion/chicken ([1]; after 13 days) was 1.51, the “Weight/chicken at day 1” value ([1]; day 1) was 43.54 and the “Weight/chicken at day 13” value ([1]; day 13) was 208.8.
With tetra-xylo-oligo-saccharides the “agglutination, comparison of degree of polymerisation of xylo-oligo-saccharides” value (E. coli K88 cells) was “best agglutination”.
